Results taken from patent publication US20070060621A1, “Methods and compositions for the administration of prodrugs of proton pump inhibitors” (priority 2004, published 2007).

Key:
Assay type in all cases: physicochemical
[1] = Hygroscopicity of compound 1 on storage
Method: The physicochemical properties of compound 1 were analyzed.

[2] = Stability profile at 25° C. in buffered aqueous solutions
Description: The base-catalyzed degradation is unexpected because the commercial proton pump inhibitors are stabilized in aqueous solutions by adjusting the solution to high pH.

[3] = Stability of compound 1 at 0.02 mg/mL at 25° C. in water, NaCl salt and phosphate buffer; conditions: for % Remaining: 25° C., 0.02 mg/mL; for Half Life (t½) / Rate Constant (k) / Shelf life (t90%): first order decay from 3-29 days
Method: FIG. 1 is a plot of the % of the original concentration of compound remaining over time. The original concentration of compound 1 was 0.02 mg/mL, and stability was assessed at 25° C. in 1) water, 2) NaCl salt (μ=0.15), 3) NaCl salt (μ=0.5), 4) phosphate buffer (pH 7.0, μ=0.15), and 5) phosphate buffer (pH 7.0, μ=0.5).
FIG. 2 is a log plot of the data of FIG. 1.
The stability of compound 1 at a concentration of 0.02 mg/mL in water at 25° C. was assessed in 1) water, 2) NaCl salt (μ=0.15), 3) NaCl salt (μ=0.5), 4) phosphate buffer (pH 7.0, μ=0.15), and 5) phosphate buffer (pH 7.0, μ=0.5). For the buffer solutions, the ionic strength (μ) was adjusted using sodium chloride, and the buffer concentration of the two solutions was equal (0.1 M). The amount of remaining compound 1 is presented as the % of the original concentration of 0.02 mg/mL for each sample in Table 3a and in FIG. 1.

[4] = pH 3, Citric Acid (0.1 M)/Na2HPO4 (0.2 M)
[5] = pH 5, Citric Acid (0.1 M)/Na2HPO4 (0.2 M)
[6] = pH 7, sodium phosphate (0.1-0.2 M)
[7] = pH 7.4, sodium phosphate (0.1-0.2 M)
[8] = pH 9, sodium phosphate (0.1-0.2 M)
[9] = pH 10, sodium phosphate (0.1-0.2 M)
[10] = Na phosphate buffer, u = 0.15, pH 7.0, 25° C.
[11] = Na phosphate buffer, u = 0.5, pH 7.0, 25° C.

COc1ccc2c(c1)nc([S+]([O-])Cc1ncc(C)c(OC)c1C)n2S(=O)(=O)c1ccc(OCC(=O)O)cc1 (centres unmarked) [Compound 1]
hygroscopicity ([1]; 14 days of storage at 25° C. at 75% relative humidity): hygroscopic
weight gain ([1]; after 14 days of storage at 25° C. at 75% relative humidity): 9%
Degradation Rate Constant (k) ([2]; No buffer): 0.0002 h⁻¹
Half-life (t1/2) ([2]; No buffer): 119.32 days
Shelf life (t90%) ([2]; No buffer): 435.4 h
Degradation Rate Constant (k) ([2]; pH 1, 0.1 M HCl): 0.194 h⁻¹
Half-life (t1/2) ([2]; pH 1, 0.1 M HCl): 0.15 days
Shelf life (t90%) ([2]; pH 1, 0.1 M HCl): 0.5 h
Degradation Rate Constant (k) [2, 4]: 0.009 h⁻¹
Half-life (t1/2) [2, 4]: 3.25 days
Shelf life (t90%) [2, 4]: 11.9 h
Degradation Rate Constant (k) [2, 5]: 0.008 h⁻¹
Half-life (t1/2) [2, 5]: 3.72 days
Shelf life (t90%) [2, 5]: 13.6 h
Degradation Rate Constant (k) [2, 6]: 0.002 h⁻¹
Half-life (t1/2) [2, 6]: 11.95 days
Shelf life (t90%) [2, 6]: 43.6 h
Degradation Rate Constant (k) [2, 7]: 0.002 h⁻¹
Half-life (t1/2) [2, 7]: 12.13 days
Shelf life (t90%) [2, 7]: 44.3 h
Degradation Rate Constant (k) [2, 8]: 0.030 h⁻¹
Half-life (t1/2) [2, 8]: 0.958 days
Shelf life (t90%) [2, 8]: 3.5 h
Degradation Rate Constant (k) [2, 9]: 0.298 h⁻¹
Half-life (t1/2) [2, 9]: 0.0958 days
Shelf life (t90%) [2, 9]: 0.4 h
% Remaining ([3]; Day 1, NaCL, u = 0.15 (pH 6.6)): 84.134%
% Remaining ([3]; Day 1, NaCL, u = 0.5 (pH 6.2)): 87.598%
% Remaining ([3]; Day 1, Phosphate buffer, u = 0.15 (pH 7.0)): 96.294%
% Remaining ([3]; Day 1, Phosphate buffer, u = 0.5 (pH 7.0)): 96.709%
% Remaining ([3]; Day 1, Water (pH 7.2)): 92.212%
% Remaining ([3]; Day 3, NaCL, u = 0.15 (pH 6.6)): 76.960%
% Remaining ([3]; Day 3, NaCL, u = 0.5 (pH 6.2)): 80.750%
% Remaining ([3]; Day 3, Phosphate buffer, u = 0.15 (pH 7.0)): 90.597%
% Remaining ([3]; Day 3, Phosphate buffer, u = 0.5 (pH 7.0)): 90.087%
% Remaining ([3]; Day 3, Water (pH 7.2)): 86.085%
% Remaining ([3]; Day 4, NaCL, u = 0.15 (pH 6.6)): 77.037%
% Remaining ([3]; Day 4, NaCL, u = 0.5 (pH 6.2)): 78.348%
% Remaining ([3]; Day 4, Phosphate buffer, u = 0.15 (pH 7.0)): 87.434%
% Remaining ([3]; Day 4, Phosphate buffer, u = 0.5 (pH 7.0)): 85.994%
% Remaining ([3]; Day 4, Water (pH 7.2)): 86.410%
% Remaining ([3]; Day 7, NaCL, u = 0.15 (pH 6.6)): 75.398%
% Remaining ([3]; Day 7, NaCL, u = 0.5 (pH 6.2)): 76.513%
% Remaining ([3]; Day 7, Phosphate buffer, u = 0.15 (pH 7.0)): 80.995%
% Remaining ([3]; Day 7, Phosphate buffer, u = 0.5 (pH 7.0)): 76.165%
% Remaining ([3]; Day 7, Water (pH 7.2)): 84.569%
% Remaining ([3]; Day 9, NaCL, u = 0.15 (pH 6.6)): 71.861%
% Remaining ([3]; Day 9, NaCL, u = 0.5 (pH 6.2)): 74.482%
% Remaining ([3]; Day 9, Phosphate buffer, u = 0.15 (pH 7.0)): 76.176%
% Remaining ([3]; Day 9, Phosphate buffer, u = 0.5 (pH 7.0)): 70.768%
% Remaining ([3]; Day 9, Water (pH 7.2)): 84.452%
% Remaining ([3]; Day 11, NaCL, u = 0.15 (pH 6.6)): 73.763%
% Remaining ([3]; Day 11, NaCL, u = 0.5 (pH 6.2)): 74.312%
% Remaining ([3]; Day 11, Phosphate buffer, u = 0.15 (pH 7.0)): 74.520%
% Remaining ([3]; Day 11, Phosphate buffer, u = 0.5 (pH 7.0)): 67.826%
% Remaining ([3]; Day 11, Water (pH 7.2)): 86.930%
% Remaining ([3]; Day 13, NaCL, u = 0.15 (pH 6.6)): 72.390%
% Remaining ([3]; Day 13, NaCL, u = 0.5 (pH 6.2)): 71.691%
% Remaining ([3]; Day 13, Phosphate buffer, u = 0.15 (pH 7.0)): 68.020%
% Remaining ([3]; Day 13, Water (pH 7.2)): 83.661%
% Remaining ([3]; Day 15, NaCL, u = 0.15 (pH 6.6)): 67.858%
% Remaining ([3]; Day 15, NaCL, u = 0.5 (pH 6.2)): 68.167%
% Remaining ([3]; Day 15, Phosphate buffer, u = 0.15 (pH 7.0)): 62.389%
% Remaining ([3]; Day 15, Phosphate buffer, u = 0.5 (pH 7.0)): 52.494%
% Remaining ([3]; Day 15, Water (pH 7.2)): 80.913%
% Remaining ([3]; Day 20, NaCL, u = 0.15 (pH 6.6)): 64.953%
% Remaining ([3]; Day 20, NaCL, u = 0.5 (pH 6.2)): 65.173%
% Remaining ([3]; Day 20, Phosphate buffer, u = 0.15 (pH 7.0)): 54.360%
% Remaining ([3]; Day 20, Phosphate buffer, u = 0.5 (pH 7.0)): 44.057%
% Remaining ([3]; Day 20, Water (pH 7.2)): 78.768%
% Remaining ([3]; Day 24, NaCL, u = 0.15 (pH 6.6)): 64.848%
% Remaining ([3]; Day 24, NaCL, u = 0.5 (pH 6.2)): 65.753%
% Remaining ([3]; Day 24, Phosphate buffer, u = 0.15 (pH 7.0)): 50.246%
% Remaining ([3]; Day 24, Phosphate buffer, u = 0.5 (pH 7.0)): 39.181%
% Remaining ([3]; Day 24, Water (pH 7.2)): 79.915%
% Remaining ([3]; Day 29, NaCL, u = 0.15 (pH 6.6)): 62.731%
% Remaining ([3]; Day 29, NaCL, u = 0.5 (pH 6.2)): 62.867%
% Remaining ([3]; Day 29, Phosphate buffer, u = 0.15 (pH 7.0)): 43.321%
% Remaining ([3]; Day 29, Phosphate buffer, u = 0.5 (pH 7.0)): 32.626%
% Remaining ([3]; Day 29, Water (pH 7.2)): 78.412%
Half Life (t½) [3, 10]: 24.063 days
Rate Constant (k) [3, 10]: 0.0288 day⁻¹
Shelf life (t90%) [3, 10]: 3.658 days
Half Life (t½) [3, 11]: 17.589 days
Rate Constant (k) [3, 11]: 0.0394 day⁻¹
Shelf life (t90%) [3, 11]: 2.674 days
Half Life (t½) ([3]; NaCl, u = 0.15, pH 6.6, 25° C.): 80.581 days
Rate Constant (k) ([3]; NaCl, u = 0.15, pH 6.6, 25° C.): 0.0086 day⁻¹
Shelf life (t90%) ([3]; NaCl, u = 0.15, pH 6.6, 25° C.): 12.251 days
Half Life (t½) ([3]; NaCl, u = 0.5, pH 6.6, 25° C.): 75.326 days
Rate Constant (k) ([3]; NaCl, u = 0.5, pH 6.6, 25° C.): 0.0092 day⁻¹
Shelf life (t90%) ([3]; NaCl, u = 0.5, pH 6.6, 25° C.): 11.452 days
Half Life (t½) ([3]; water, pH 7.2, 25° C.): 161.163 days
Rate Constant (k) ([3]; water, pH 7.2, 25° C.): 0.0043 day⁻¹
Shelf life (t90%) ([3]; water, pH 7.2, 25° C.): 24.502 days
